Laboratory results as given in patent US20090238761A1, “Novel Aryl Piperazine Derivatives With Medical Utility” (Universita Degli Studi Di Siena, priority 2005, published 2009).

| melting point [°C] | Structure (SMILES) |
| --- | --- |
| 149 to 150 | O=C(NCCCCN1CCN(c2ccccc2)CC1)c1cc2ccccc2o1 |
| 151 to 152 | Cc1cccc(N2CCN(CCCCNC(=O)c3cc4ccccc4o3)CC2)c1C |
| 104 to 105 | COc1cccc(N2CCN(CCCCNC(=O)c3cc4ccccc4o3)CC2)c1 |
| 107 to 109 | Cc1cccc(N2CCN(CCCCNC(=O)c3cc4ccccc4o3)CC2)n1 |
| 124 to 125 | O=C(NCCCCN1CCN(c2cnc3ccccc3c2)CC1)c1ccccc1 |
| 153 to 154 | O=C(NCCCCN1CCN(c2cnc3ccccc3c2)CC1)c1cc2ccccc2cn1 |
| 119 to 120 | O=C(NCCCCN1CCN(c2ccccc2)CC1)c1cccnc1 |
| 102 to 103 | Cc1cccc(N2CCN(CCCCNC(=O)c3ccccc3)CC2)n1 |
| 120 to 121 | COc1cccc(N2CCN(CCCCNC(=O)c3ccccc3)CC2)n1 |
| 180 to 181 | O=C1c2cc3ccccc3n2CCN1CCCCN1CCN(c2cccc(Cl)c2)CC1 [Compound 1-9, 2-[4-[4-(3-Chlorophenyl)piperazin-1-yl]butyl]-3,4-dihydropyrazino[1,2-a]indol-1(2H)-one] |
| 155 to 156 | Cc1cccc(N2CCN(CCCCN3CCn4c(cc5ccccc54)C3=O)CC2)c1 [Compound 1-11] |
| 94 to 95 | Cc1cccc(N2CCN(CCCCCOc3cc4ccccc4cn3)CC2)c1 [Compound 1-12, 3-[5-(4-m-Tolylpiperazin-1-yl)pentyloxy]isoquinoline] |
| 111 to 112 | COc1cccc(N2CCN(CCCCNC(=O)c3ccccc3)CC2)c1 [Compound 1-45, N-(4-(4-(3-Methoxyphenyl)piperazin-1-yl)butyl)benzamide] |
| 126 to 127 | Cc1cccc(N2CCN(CCCCNC(=O)c3ccccc3)CC2)c1 [Compound 1-46, N-(4-(4-m-Tolylpiperazin-1-yl)butyl)benzamide] |
